The subject of the data set is CCRIS mutagenicity, Ames/micronucleus/aberration tests. Kind of data set: CCRIS mutagenicity studies.
[1] abbreviates: Test System: AMES SALMONELLA TYPHIMURIUM, Strain/Indicator: TA98, Metabolic Activation: NONE, Method: PREINCUBATION
Setting [2] is: Test System: AMES SALMONELLA TYPHIMURIUM, Strain/Indicator: TA100, Metabolic Activation: NONE, Method: PREINCUBATION
Where [3] appears, read: Test System: AMES SALMONELLA TYPHIMURIUM, Strain/Indicator: TA1535, Metabolic Activation: NONE, Method: PREINCUBATION
Where [4] appears, read: Test System: AMES SALMONELLA TYPHIMURIUM, Strain/Indicator: TA98, Metabolic Activation: NONE, Method: STANDARD PLATE.
The mark [5] stands for this setting: Test System: AMES SALMONELLA TYPHIMURIUM, Strain/Indicator: TA98, Metabolic Activation: RAT, LIVER, S-9, AROCLOR 1254, Method: STANDARD PLATE.
[6] abbreviates: Test System: AMES SALMONELLA TYPHIMURIUM, Strain/Indicator: TA100, Metabolic Activation: NONE, Method: STANDARD PLATE.
[7] abbreviates: Test System: AMES SALMONELLA TYPHIMURIUM, Strain/Indicator: TA100, Metabolic Activation: RAT, LIVER, S-9, AROCLOR 1254, Method: STANDARD PLATE.
[8] abbreviates: Test System: AMES SALMONELLA TYPHIMURIUM, Strain/Indicator: TA1535, Metabolic Activation: NONE, Method: STANDARD PLATE.
Where [9] appears, read: Test System: AMES SALMONELLA TYPHIMURIUM, Strain/Indicator: TA1535, Metabolic Activation: RAT, LIVER, S-9, AROCLOR 1254, Method: STANDARD PLATE.
The mark [10] stands for this setting: Test System: AMES SALMONELLA TYPHIMURIUM, Strain/Indicator: TA1537, Metabolic Activation: NONE, Method: STANDARD PLATE.
Setting [11] is: Test System: AMES SALMONELLA TYPHIMURIUM, Strain/Indicator: TA1537, Metabolic Activation: RAT, LIVER, S-9, AROCLOR 1254, Method: STANDARD PLATE.
The mark [12] stands for this setting: Test System: AMES SALMONELLA TYPHIMURIUM, Strain/Indicator: TA1538, Metabolic Activation: NONE, Method: STANDARD PLATE.
The mark [13] stands for this setting: Test System: AMES SALMONELLA TYPHIMURIUM, Strain/Indicator: TA1538, Metabolic Activation: RAT, LIVER, S-9, AROCLOR 1254, Method: STANDARD PLATE.

The source made the active and inactive calls. How the calls were made is not given here.

In the case of `CCC(C(N)=O)(C(N)=O)c1ccccc1`, the mutagenic call (Test System: AMES SALMONELLA TYPHIMURIUM, Strain/Indicator: TA97, Metabolic Activation: HAMSTER, LIVER, S-9, AROCLOR 1254 (10 OR 30%), Method: PREINCUBATION) is “inactive; negative”; the mutagenic call (Test System: AMES SALMONELLA TYPHIMURIUM, Strain/Indicator: TA97, Metabolic Activation: NONE, Method: PREINCUBATION) was “inactive; negative”; the mutagenic call (Test System: AMES SALMONELLA TYPHIMURIUM, Strain/Indicator: TA97, Metabolic Activation: RAT, LIVER, S-9, AROCLOR 1254 (10 OR 30%), Method: PREINCUBATION) is “inactive; negative”; the mutagenic call (Test System: AMES SALMONELLA TYPHIMURIUM, Strain/Indicator: TA98, Metabolic Activation: HAMSTER, LIVER, S-9, AROCLOR 1254 (10 OR 30%), Method: PREINCUBATION) is “inactive; negative”; the mutagenic call under setting [1] was “inactive; negative”; the mutagenic call (Test System: AMES SALMONELLA TYPHIMURIUM, Strain/Indicator: TA98, Metabolic Activation: RAT, LIVER, S-9, AROCLOR 1254 (10 OR 30%), Method: PREINCUBATION) was “inactive; negative”. The mutagenic call is “inactive; negative” (Test System: AMES SALMONELLA TYPHIMURIUM, Strain/Indicator: TA100, Metabolic Activation: HAMSTER, LIVER, S-9, AROCLOR 1254 (10 OR 30%), Method: PREINCUBATION); “inactive; negative” under setting [2]; “inactive; negative” (Test System: AMES SALMONELLA TYPHIMURIUM, Strain/Indicator: TA100, Metabolic Activation: RAT, LIVER, S-9, AROCLOR 1254 (10 OR 30%), Method: PREINCUBATION); “inactive; negative” (Test System: AMES SALMONELLA TYPHIMURIUM, Strain/Indicator: TA1535, Metabolic Activation: HAMSTER, LIVER, S-9, AROCLOR 1254 (10 OR 30%), Method: PREINCUBATION); “inactive; negative” under setting [3]; “inactive; negative” (Test System: AMES SALMONELLA TYPHIMURIUM, Strain/Indicator: TA1535, Metabolic Activation: RAT, LIVER, S-9, AROCLOR 1254 (10 OR 30%), Method: PREINCUBATION).
Regarding `ClCC1C(CCl)[C@@]2(Cl)C(Cl)=C(Cl)[C@]1(Cl)C2(Cl)Cl` (stereo partly drawn), the mutagenic call was “inactive; negative” (Test System: AMES SALMONELLA TYPHIMURIUM, Strain/Indicator: TA97, Metabolic Activation: NONE, Method: STANDARD PLATE); “inactive; negative” (Test System: AMES SALMONELLA TYPHIMURIUM, Strain/Indicator: TA97, Metabolic Activation: RAT, LIVER, S-9, AROCLOR 1254, Method: STANDARD PLATE); “inactive; negative” under setting [4]; “inactive; negative” under setting [5]; “inactive; negative” under setting [6]; “inactive; negative” under setting [7]. The mutagenic call by setting is: (Test System: AMES SALMONELLA TYPHIMURIUM, Strain/Indicator: TA102, Metabolic Activation: NONE, Method: STANDARD PLATE) “inactive; negative”; (Test System: AMES SALMONELLA TYPHIMURIUM, Strain/Indicator: TA102, Metabolic Activation: RAT, LIVER, S-9, AROCLOR 1254, Method: STANDARD PLATE) “inactive; negative”.
Regarding `O=Cc1ccccc1[N+](=O)[O-]`, the mutagenic call was “inactive; negative” (Test System: AMES SALMONELLA TYPHIMURIUM, Strain/Indicator: TA98, Metabolic Activation: HAMSTER, LIVER, S-9, AROCLOR 1254, Method: STANDARD PLATE); “inactive; negative” under setting [1]; “inactive; negative” under setting [4]; “inactive; negative” under setting [5]; “inactive; negative” (Test System: AMES SALMONELLA TYPHIMURIUM, Strain/Indicator: TA98, Metabolic Activation: RAT, LIVER, S-9, KANECHLOR 500, Method: PREINCUBATION); “inactive; negative” (Test System: AMES SALMONELLA TYPHIMURIUM, Strain/Indicator: TA98, Method: PREINCUBATION). The mutagenic call is “inactive; negative” (Test System: AMES SALMONELLA TYPHIMURIUM, Strain/Indicator: TA100, Metabolic Activation: HAMSTER, LIVER, S-9, AROCLOR 1254, Method: STANDARD PLATE); “inactive; negative” under setting [2]; “inactive; negative” under setting [6]; “inactive; negative” under setting [7]; “inactive; negative” (Test System: AMES SALMONELLA TYPHIMURIUM, Strain/Indicator: TA100, Metabolic Activation: RAT, LIVER, S-9, KANECHLOR 500, Method: PREINCUBATION); “inactive; negative” (Test System: AMES SALMONELLA TYPHIMURIUM, Strain/Indicator: TA100, Method: PREINCUBATION). Moreover, the mutagenic call (Test System: AMES SALMONELLA TYPHIMURIUM, Strain/Indicator: TA1535, Metabolic Activation: HAMSTER, LIVER, S-9, AROCLOR 1254, Method: STANDARD PLATE) was “inactive; negative”; the mutagenic call under setting [3] was “inactive; negative”; the mutagenic call under setting [8] was “inactive; negative”; the mutagenic call under setting [9] is “inactive; negative”; the mutagenic call (Test System: AMES SALMONELLA TYPHIMURIUM, Strain/Indicator: TA1535, Method: PREINCUBATION) was “inactive; negative”; the mutagenic call (Test System: AMES SALMONELLA TYPHIMURIUM, Strain/Indicator: TA1537, Metabolic Activation: HAMSTER, LIVER, S-9, AROCLOR 1254, Method: STANDARD PLATE) was “inactive; negative”. For the same compound, the mutagenic call was “inactive; negative” (Test System: AMES SALMONELLA TYPHIMURIUM, Strain/Indicator: TA1537, Metabolic Activation: NONE, Method: PREINCUBATION); “inactive; negative” under setting [10]; “inactive; negative” under setting [11]; “inactive; negative” (Test System: AMES SALMONELLA TYPHIMURIUM, Strain/Indicator: TA1537, Method: PREINCUBATION); “inactive; negative” (Test System: AMES SALMONELLA TYPHIMURIUM, Strain/Indicator: TA1538, Metabolic Activation: HAMSTER, LIVER, S-9, AROCLOR 1254, Method: STANDARD PLATE); “inactive; negative” (Test System: AMES SALMONELLA TYPHIMURIUM, Strain/Indicator: TA1538, Metabolic Activation: NONE, Method: PREINCUBATION). Besides, the mutagenic call under setting [12] is “inactive; negative”; the mutagenic call under setting [13] was “inactive; negative”; the mutagenic call (Test System: AMES SALMONELLA TYPHIMURIUM, Strain/Indicator: TA1538, Method: PREINCUBATION) was “inactive; negative”; the mutagenic call (Test System: Mouse lymphoma, Strain/Indicator: L5178Y (tk+/tk-), Metabolic Activation: None, Method: Suspension/plate) is “inactive; negative”; the mutagenic call (Test System: Mouse lymphoma, Strain/Indicator: L5178Y (tk+/tk-), Metabolic Activation: Rat, Liver, S-9, Aroclor 1254, Method: Suspension/plate) was “inactive; negative”.
As for `CC(=O)OCc1c2ccccc2cc2ccccc12`, the mutagenic call was “active; positive” under setting [4] and “active; positive” under setting [6].
With `Cc1ccc(C(=O)ON(OCc2ccccc2)C(=O)c2ccccc2)cc1`, the mutagenic call under setting [6] was “active; positive” and the mutagenic call (Test System: AMES SALMONELLA TYPHIMURIUM, Strain/Indicator: TA100, Metabolic Activation: RAT, S-9, AROCLOR, Method: STANDARD PLATE) is “active; positive”.
In the case of `C[C@@H]1O[C@@H](OC[C@H]2O[C@@H](Oc3c(-c4ccc(OCCO)c(OCCO)c4)oc4cc(OCCO)cc(O)c4c3=O)[C@H](O)[C@@H](O)[C@@H]2O)[C@H](O)[C@H](O)[C@H]1O`, the mutagenic call under setting [4] is “inactive; negative”; the mutagenic call under setting [5] is “inactive; negative”; the mutagenic call under setting [6] was “inactive; negative”; the mutagenic call under setting [7] was “inactive; negative”; the mutagenic call under setting [8] was “inactive; negative”; the mutagenic call under setting [9] is “inactive; negative”. Moreover, the mutagenic call under setting [10] is “inactive; negative”, the mutagenic call under setting [11] was “inactive; negative”, the mutagenic call under setting [12] was “inactive; negative” and the mutagenic call under setting [13] was “inactive; negative”.

Values taken from PubChem BioAssay AID1259407 (Chemical Carcinogenesis Research Information System (CCRIS), 2018).
